Data published in patent US9187464B2, “TRPV4 antagonists” (GlaxoSmithKline Intellectual Property (No. 2) Limited, priority 2011, dated 2015).
Structures can show the parent of a compound that is named as a salt.

Target: T1, human TRPV4 (Homo sapiens, UniProt Q9HBA0)
T1 construct: expressed in transfected cells; host or cells: HEK-293-MSR-II cells transduced with 1% BacMam virus
Assay: Ligand-gated assay (Fluo4 calcium, FLIPR; inhibition of agonist-induced activation)
Format: cell-based
Conditions: HEK-293-MSR-II cells transduced with BacMam human TRPV4; agonist at EC80
Method in brief: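 Agonist (EC80) response read on FLIPR as Fluo-4 (2 uM) fluorescence after 10-min room-temperature compound exposure in HBSS/HEPES pH 7.4 with 0.01% Chaps. Cells: HEK-293-MSR-II expressing human TRPV4 via BacMam; output is IC50 of inhibition.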

T1 sequence (Q9HBA0 whole entry): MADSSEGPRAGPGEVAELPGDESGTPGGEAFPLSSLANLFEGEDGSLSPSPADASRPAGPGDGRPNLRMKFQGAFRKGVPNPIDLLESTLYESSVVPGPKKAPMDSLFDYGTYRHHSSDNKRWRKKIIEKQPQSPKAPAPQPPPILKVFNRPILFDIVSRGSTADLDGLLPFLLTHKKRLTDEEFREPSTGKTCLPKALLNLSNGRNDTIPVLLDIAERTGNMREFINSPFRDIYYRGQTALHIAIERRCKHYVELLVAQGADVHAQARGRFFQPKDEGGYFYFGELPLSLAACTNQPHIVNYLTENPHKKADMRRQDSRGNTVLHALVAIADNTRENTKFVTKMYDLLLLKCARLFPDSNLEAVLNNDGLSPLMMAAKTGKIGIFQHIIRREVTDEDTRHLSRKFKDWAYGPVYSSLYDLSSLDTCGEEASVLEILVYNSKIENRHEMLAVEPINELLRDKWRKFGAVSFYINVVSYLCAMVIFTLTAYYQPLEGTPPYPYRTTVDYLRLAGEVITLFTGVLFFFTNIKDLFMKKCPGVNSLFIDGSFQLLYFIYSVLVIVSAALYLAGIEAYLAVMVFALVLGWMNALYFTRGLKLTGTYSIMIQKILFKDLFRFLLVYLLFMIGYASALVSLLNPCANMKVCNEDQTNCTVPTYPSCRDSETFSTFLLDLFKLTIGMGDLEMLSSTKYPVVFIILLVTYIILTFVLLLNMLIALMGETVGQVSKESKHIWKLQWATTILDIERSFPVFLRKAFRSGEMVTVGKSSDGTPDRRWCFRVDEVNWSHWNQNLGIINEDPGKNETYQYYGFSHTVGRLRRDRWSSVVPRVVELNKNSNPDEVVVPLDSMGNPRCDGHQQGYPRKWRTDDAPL

IC50 [µM]	Structure (SMILES)
0.05 to 0.5	N#Cc1ccc2ncn(C[C@H]3CCC[C@]4(C3)CN(CC3CCN(c5ccccn5)C3)C(=O)O4)c2c1 (stereo partly drawn) [Example 86, 1-[((5S,7S)-2-oxo-3-{[1-(2-pyridinyl)-3-pyrrolidinyl]methyl}-1-oxa-3-azaspiro[4.5]dec-7-yl)methyl]-1H-benzimidazole-6-carbonitrile]
0.01 to 0.05	N#Cc1ccc2ncn(C[C@H]3CCC[C@]4(C3)CN(Cc3cn(-c5ccccc5)nn3)C(=O)O4)c2c1 [Example 87, 1-({(5S,7S)-2-oxo-3-[(1-phenyl-1H-1,2,3-triazol-4-yl)methyl]-1-oxa-3-azaspiro[4.5]dec-7-yl}methyl]-1H-benzimidazole-6-carbonitrile]
0.05 to 0.5	N#Cc1ccc(-n2cc(CN3C[C@@]4(CCC[C@H](Cn5cnc6ccc(C#N)cc65)C4)OC3=O)nn2)cc1 [Example 88, 1-[((5S,7S)-3-{[1-(4-cyanophenyl)-1H-1,2,3-triazol-4-yl]methyl}-2-oxo-1-oxa-3-azaspiro[4.5]dec-7-yl)methyl]-1H-benzimidazole-6-carbonitrile]
0.01 to 0.05	N#Cc1ccc2ncn(C[C@H]3CCC[C@]4(C3)CN(Cc3cn(-c5ccc(Cl)cc5)nn3)C(=O)O4)c2c1 [Example 89]
0.0001 to 0.01	N#Cc1ccc2ncn(C[C@H]3CCC[C@]4(C3)CN(Cc3cn(-c5cccc(Cl)c5)nn3)C(=O)O4)c2c1 [Example 90, 1-[((5S,7S)-3-{[1-(3-chlorophenyl)-1H-1,2,3-triazol-4-yl]methyl}-2-oxo-1-oxa-3-azaspiro[4.5]dec-7-yl)methyl]-1H-benzimidazole-6-carbonitrile]
0.05 to 0.5	Cc1ccc(-n2cc(CN3C[C@@]4(CCC[C@H](Cn5cnc6ccc(C#N)cc65)C4)OC3=O)nn2)cc1 [Example 91, 1-[((5S,7S)-3-{[1-(4-methylphenyl)-1H-1,2,3-triazol-4-yl]methyl}-2-oxo-1-oxa-3-azaspiro[4.5]dec-7-yl)methyl]-1H-benzimidazole-6-carbonitrile]
0.01 to 0.05	N#Cc1cccc(-n2cc(CN3C[C@@]4(CCC[C@H](Cn5cnc6ccc(C#N)cc65)C4)OC3=O)nn2)c1 [Example 92, 1-[((5S,7S)-3-{[1-(3-cyanophenyl)-1H-1,2,3-triazol-4-yl]methyl}-2-oxo-1-oxa-3-azaspiro[4.5]dec-7-yl)methyl]-1H-benzimidazole-6-carbonitrile]
0.0001 to 0.01	N#Cc1ccc2ncn(C[C@H]3CCC[C@]4(C3)CN(Cc3cn(-c5cccc(C(F)(F)F)c5)nn3)C(=O)O4)c2c1 [Example 93, 1-{[(5S,7S)-2-oxo-3-({1-[3-(trifluoromethyl)phenyl]-1H-1,2,3-triazol-4-yl}methyl)-1-oxa-3-azaspiro[4.5]dec-7-yl]methyl}-1H-benzimidazole-6-carbonitrile]
0.01 to 0.05	N#Cc1ccc2ncn(C[C@H]3CCC[C@]4(C3)CN(Cc3cn(-c5cccc(F)c5)nn3)C(=O)O4)c2c1 [Example 94, 1-[((5S,7S)-3-{[1-(3-fluorophenyl)-1H-1,2,3-triazol-4-yl]methyl}-2-oxo-1-oxa-3-azaspiro[4.5]dec-7-yl)methyl]-1H-benzimidazole-6-carbonitrile]
0.01 to 0.05	COc1cccc(-n2cc(CN3C[C@@]4(CCC[C@H](Cn5cnc6ccc(C#N)cc65)C4)OC3=O)nn2)c1 [Example 95, 1-{[(5S,7S)-3-({1-[3-(methyloxy)phenyl]-1H-1,2,3-triazol-4-yl}methyl)-2-oxo-1-oxa-3-azaspiro[4.5]dec-7-yl]methyl}-1H-benzimidazole-6-carbonitrile]
0.01 to 0.05	Cc1cccc(-n2cc(CN3C[C@@]4(CCC[C@H](Cn5cnc6ccc(C#N)cc65)C4)OC3=O)nn2)c1 [Example 96, 1-[((5S,7S)-3-{[1-(3-methylphenyl)-1H-1,2,3-triazol-4-yl]methyl}-2-oxo-1-oxa-3-azaspiro[4.5]dec-7-yl)methyl]-1H-benzimidazole-6-carbonitrile]
0.01 to 0.05	N#Cc1ccc2ncn(C[C@H]3CCC[C@]4(C3)CN(Cc3cn(C5CCCCC5)nn3)C(=O)O4)c2c1 [Example 97, 1-({(5S,7S)-3-[(1-cyclohexaneyl-1H-1,2,3-triazol-4-yl)methyl]-2-oxo-1-oxa-3-azaspiro[4.5]dec-7-yl}methyl)-1H-benzimidazole-6-carbonitrile]
0.0001 to 0.01	N#Cc1ccc2ncn(C[C@H]3CCC[C@]4(C3)CN(Cc3cn(-c5ccc(C#N)c(C(F)(F)F)c5)nn3)C(=O)O4)c2c1 [Example 98, 1-{[(5S,7S)-3-({1-[4-cyano-3-(trifluoromethyl)phenyl]-1H-1,2,3-triazol-4-yl}methyl)-2-oxo-1-oxa-C azaspiro[4.5]dec-7-yl]methyl}-1H benzimidazole-6-carbonitrile]

More lines, now with the values behind:

Structure (SMILES)	IC50 [µM]
N#Cc1ccc2ncn(C[C@H]3CCC[C@]4(C3)CN(Cc3cncc(-c5ccccc5)c3)C(=O)O4)c2c1 [Example 72, 1-({(5S,7S)-2-oxo-3-[(5-phenyl-3-pyridinyl)methyl]-1-oxa-3-azaspiro[4.5]dec-7-yl}methyl)-1H-benzimidazole-6-carbonitrile trifluoroacetate]	0.05 to 0.5
CC(C)(CN1C[C@@]2(CCC[C@H](Cn3cnc4c(Cl)cc(C#N)cc43)C2)OC1=O)c1nc(-c2ccccc2)no1 [Example 73, 4-chloro-1-({(5S,7S)-3-[2-methyl-2-(3-phenyl-1,2,4-oxadiazol-5-yl)propyl]-2-oxo-1-oxa-3-azaspiro[4.5]dec-7-yl}methyl)-1H-benzimidazole-6-carbonitrile]	0.0001 to 0.01
Cc1noc(C(C)(C)CN2C[C@@]3(CCC[C@H](Cn4cnc5ccc(C#N)cc54)C3)OC2=O)n1 [Example 74, 1-({(5S,7S)-3-[2-methyl-2-(3-methyl-1,2,4-oxadiazol-5-yl)propyl]-2-oxo-1-oxa-3-azaspiro[4.5]dec-7-yl}methyl)-1H-benzimidazole-6-carbonitrile]	0.01 to 0.05
CC(C)(CN1C[C@@]2(CCC[C@H](Cn3cnc4ccc(C#N)cc43)C2)OC1=O)c1nc(-c2ccccc2)no1 [Example 75, 1-({(5S,7S)-3-[2-methyl-2-(3-phenyl-1,2,4-oxadiazol-5-yl)propyl]-2-oxo-1-oxa-3-azaspiro[4.5]dec-7-yl}methyl)-1H-benzimidazole-6-carbonitrile]	0.0001 to 0.01
CC(C)c1noc(C(C)(C)CN2C[C@@]3(CCC[C@H](Cn4cnc5ccc(C#N)cc54)C3)OC2=O)n1 [Example 76, 1-[((5S,7S)-3-{2-methyl-2-[3-(1-methylethyl)-1,2,4-oxadiazol-5-yl]propyl}-2-oxo-1-oxa-3-azaspiro[4.5]dec-7-yl)methyl]-1H-benzimidazole-6-carbonitrile]	0.0001 to 0.01
CC(C)(CN1C[C@@]2(CCC[C@H](Cn3cnc4ccc(C#N)cc43)C2)OC1=O)c1nc(C2CCCC2)no1 [Example 77, 1-({(5S,7S)-3-[2-(3-cyclopentyl-1,2,4-oxadiazol-5-yl)-2-methylpropyl]-2-oxo-1-oxa-3-azaspiro[4.5]dec-7-yl}methyl)-1H-benzimidazole-6-carbonitrile]	0.0001 to 0.01
CC(C)(CN1C[C@@]2(CCC[C@H](Cn3cnc4ccc(C#N)cc43)C2)OC1=O)c1nc(-c2cncnc2)no1 [Example 78, 1-[((5S,7S)-3-{2-methyl-2-[3-(5-pyrimidinyl)-1,2,4-oxadiazol-5-yl]propyl}-2-oxo-1-oxa-3-azaspiro[4.5]dec-7-yl)methyl]-1H-benzimidazole-6-carbonitrile]	0.0001 to 0.01
CC(C)(C)c1noc(C(C)(C)CN2C[C@@]3(CCC[C@H](Cn4cnc5ccc(C#N)cc54)C3)OC2=O)n1 [Example 79, 1-[((5S,7S)-3-{2-[3-(1,1-dimethylethyl)-1,2,4-oxadiazol-5-yl]-2-methylpropyl}-2-oxo-1-oxa-3-azaspiro[4.5]dec-7-yl)methyl]-1H-benzimidazole-6-carbonitrile]	0.0001 to 0.01
CC(C)(CN1C[C@@]2(CCC[C@H](Cn3cnc4ccc(C#N)cc43)C2)OC1=O)c1nc(C(F)(F)F)no1 [Example 80, 1-[((5S,7S)-3-{2-methyl-2-[3-(trifluoromethyl)-1,2,4-oxadiazol-5-yl]propyl}-2-oxo-1-oxa-3-azaspiro[4.5]dec-7-yl)methyl]-1H-benzimidazole-6-carbonitrile]	0.0001 to 0.01
COCc1noc(C(C)(C)CN2C[C@@]3(CCC[C@H](Cn4cnc5ccc(C#N)cc54)C3)OC2=O)n1 [Example 81, 1-{[(5S,7S)-3-(2-methyl-2-{3-[(methyloxy)methyl]-1,2,4-oxadiazol-5-yl}propyl)-2-oxo-1-oxa-3-azaspiro[4.5]dec-7-yl]methyl}-1H-benzimidazole-6-carbonitrile]	0.0001 to 0.01
CC(C)Cc1noc(C(C)(C)CN2C[C@@]3(CCC[C@H](Cn4cnc5ccc(C#N)cc54)C3)OC2=O)n1 [Example 82, 1-[((5S,7S)-3-{2-methyl-2-[3-(2-methylpropyl)-1,2,4-oxadiazol-5-yl]propyl}-2-oxo-1-oxa-3-azaspiro[4.5]dec-7-yl)methyl]-1H-benzimidazole-6-carbonitrile]	0.0001 to 0.01
CC(C)OCc1noc(C(C)(C)CN2C[C@@]3(CCC[C@H](Cn4cnc5ccc(C#N)cc54)C3)OC2=O)n1 [Example 83, 1-({(5S,7S)-3-[2-methyl-2-(3-{[(1-methylethyl)oxy]methyl}-1,2,4-oxadiazol-5-yl)propyl]-2-oxo-1-oxa-3-azaspiro[4.5]dec-7-yl}methyl)-1H-benzimidazole-6-carbonitrile]	0.0001 to 0.01
N#Cc1cc(Cl)c2ncn(C[C@H]3CCC[C@]4(C3)CN(CC3(c5nc(-c6ccccc6)no5)CCOCC3)C(=O)O4)c2c1 [Example 84, 4-chloro-1-[((5S,7S)-2-oxo-3-{[4-(3-phenyl-1,2,4-oxadiazol-5-yl)tetrahydro-2H-pyran-4-yl]methyl}-1-oxa-3-azaspiro[4.5]dec-7-yl)methyl]-1H-benzimidazole-6-carbonitrile]	0.0001 to 0.01
N#Cc1cc(Cl)c2ncn(C[C@H]3CCC[C@]4(C3)CN(CC3(c5nc(C6CCCC6)no5)CCOCC3)C(=O)O4)c2c1 [Example 85, 4-chloro-1-[((5S,7S)-3-{[4-(3-cyclopentyl-1,2,4-oxadiazol-5-yl)tetrahydro-2H-pyran-4-yl]methyl}-2-oxo-1-oxa-3-azaspiro[4.5]dec-7-yl)methyl]-1H-benzimidazole-6-carbonitrile]	0.0001 to 0.01
